# From patent US20060252735A1, “Treatment of graft-versus-host disease and leukemia with beclomethasone dipropionate and prednisone” (DOR BioPharma, Inc., priority 2004, published 2006)
# What was measured:
# [1] = tested on: gastrointestinal GVHD patients; conditions: cited from earlier work
# [2] = tested on: patients with Grade II GVHD with GI symptoms; test: Phase III trial: survival/mortality through 200 days post-transplant; assay type: in vivo, human
# Protocol: 5. To compare the treatment groups with respect to total deaths and cause of death through 200 days post-transplant.
# (§1) The randomization was stratified by the source of the allograft (two HLA haplotype identical sibling versus all other), and by topical corticosteroid use (yes versus no). All patients received 10 days of prednisone at 1 mg/kg/day (or an equivalent dose of intravenous [IV] corticosteroid). On Study Day 10, patients determined by the investigator to have their GVHD controlled had their prednisone tapered rapidly over 7 days starting on Study Day 11, and received a maintenance prednisone dose of 0.0625 mg/kg/day for the remainder of the study. BDP doses were evenly divided to include equal quantities of the IR and EC formulations administered four times per day.
# 7. Patient survival through day 200 post-transplant.
# One hundred and twenty-nine (129) post-bone marrow transplant patients presenting with Grade II iGVHD were enrolled in the randomized, double-blind, placebo-controlled, multi-center clinical trial, which was conducted at 16 bone marrow transplant centers in the United States and France. All patients in the Phase III clinical trial were initially treated with a constant daily dose of high dose (1-2 mg/kg) prednisone, which is the current standard therapy, in combination with an oral dose of either orBec® (8 mg/day) or placebo for the first 10 days. On day 10, if patients were responding to treatment, the high dose prednisone was rapidly tapered and patients continued to receive either orBec® or placebo orally for an additional forty days. The primary endpoint of the study was a comparison between the two treatment arms of the time to treatment failure, defined as the need for additional therapies due to uncontrolled signs or symptoms of GVHD. Secondary endpoints in the study included a comparison of the proportion of treatment failures and clinical scores at 10 Days, 30 Days, 50 Days, 60 Days and 80 Days post-randomization, a comparison of cumulative exposure to systemic steroids, as well as a comparison of mortality at Day 200 post-transplant.
# [3] = tested on: patients with Grade II GVHD with gastrointestinal symptoms; conditions: oral BDP 8 mg/day for 30 days as adjuvant to prednisone; cited from earlier work
# Grade II GI GVHD = conditions: capsule form, 8 mg/day divided into 4 equal doses; cited from earlier work
# [4] = tested on: patients with Grade II GVHD with GI symptoms; test: Phase III randomized, double-blind, placebo-controlled trial: treatment failure with oral BDP plus 10 days of prednisone; assay type: in vivo, human; conditions: for Cumulative events (treatment failures): full analysis set, 62 randomized
# Description: The Secondary objectives of the study were:
# To be eligible for entry into the study, patients were at least 10 days post allogeneic hematopoietic cell transplantation, have GI symptoms consistent with Grade II GVHD, and had endoscopic evidence of GVHD. The diagnosis of GVHD was confirmed by biopsy of the intestine (esophagus, stomach, small intestine, or colon) or skin. A total of 129 eligible patients were randomized to one of two treatment groups.
# as §1
# 1. Treatment failure, defined as use of prednisone or equivalent IV corticosteroids at doses higher than stated in protocol, or addition of other immunosuppressant medications.
# The primary efficacy endpoint of this two-arm study was the time to treatment failure. The primary efficacy analysis will compare the time to treatment failure through Study Day 50 using a log-rank test controlling for patient randomization stratum. Product-limit estimates for time to failure will be provided for descriptive purposes. The null hypothesis for the log-rank test is that time to failure is homogeneous across the treatment groups.
# Secondary analyses of treatment failure compared the treatment groups with respect to proportion of treatment failures and Karnofsky Scale (or Lansky Scale) scores at key time points. The difference in proportion of treatment failures on Study Days 10, 30, 50, 60, and 80 was evaluated using a two-sided Fisher's Exact test of the null hypothesis of no difference between the treatment groups. The difference in Karnofsky Scale (or Lansky Scale) scores at the same time points was evaluated using a two-sided Wilcoxon test to evaluate the null hypothesis of no difference in medians between treatment groups.
# On Study Day 10, patients were evaluated for the signs and symptoms of GVHD. Patients in both treatment groups who met the response criterion of adequately controlled GVHD, as judged by the investigator, had their prednisone tapered over 7 days starting on Study Day 11 (Table 2). Starting on Study Day 17, physiologic replacement doses of prednisone were given for the remainder of the study. If the investigator determined that GVHD was not controlled on Study Day 10, patients discontinued study drug but continued prednisone initially at 1 mg/kg/day; these patients were considered to be treatment failures. In treatment failure cases, physicians subsequently modifiedy prednisone dosage as deemed appropriate.
# One hundred and twenty-nine (129) post-bone marrow transplant patients presenting with Grade II iGVHD were enrolled in the randomized, double-blind, placebo-controlled, multi-center clinical trial, which was conducted at 16 bone marrow transplant centers in the United States and France. All patients in the Phase III clinical trial were initially treated with a constant daily dose of high dose (1-2 mg/kg) prednisone, which is the current standard therapy, in combination with an oral dose of either orBec® (8 mg/day) or placebo for the first 10 days. On day 10, if patients were responding to treatment, the high dose prednisone was rapidly tapered and patients continued to receive either orBec® or placebo orally for an additional forty days. […]
# [5] = up to 28 days of BDP 8 mg/day, both groups (taking prednisone or not)
# [6] = 200 days post-transplant, safety population, 61 evaluable
# [7] = orBec n = 62, p 0.006 vs placebo
smiles,measurement,setting,value
"CCC(=O)OCC(=O)[C@@]1(OC(=O)CC)[C@@H](C)C[C@H]2[C@@H]3CCC4=CC(=O)C=C[C@]4(C)[C@@]3(Cl)[C@@H](O)C[C@@]21C [BDP, Beclomethasone 17,21-dipropionate]",study drug associated adverse events reported,[1]; BDP 8 mg/day for 28 days,mild metallic taste and mild peri-umbilical heaviness
same,treatment-related adverse events,[1]; BDP 8 mg/day for 28 days,No significant treatment-related adverse events were observed
same,timing of response versus historical high dose prednisone,[1]; BDP alone group,appeared to be slower
same,gastrointestinal symptoms versus baseline,[1]; [5],abatement of most gastrointestinal symptoms
same,oral food intake versus baseline,[1]; [5],increase in oral food intake
same,"Survival status: Alive, number of subjects",[2]; [6],56
same,"Survival status: Alive, percent of subjects",[2]; [6],92%
same,"Survival status: Dead, number of subjects",[2]; [6],5
same,"Survival status: Dead, percent of subjects",[2]; [6],8%
same,reduction in mortality versus placebo group,[2]; Day 200 post-transplant period,70%
same,Mortality Rate at 200 Days Post-Transplant,[2]; [7],8%
same,"Mortality at 200 Days Post-Transplant, number of deaths",[2]; [7],5
same,Day 200 survival rate,"[2]; safety population, Z = 2.750, P = 0.0060 vs placebo",0.91
same,"gastrointestinal symptoms (nausea, vomiting, diarrhea) versus placebo group",[3],all improved
same,proportion of patients with increased oral caloric intake versus prednisone plus placebo,[3],significantly higher proportion
same,clinical benefit in treatment of Grade II GI GVHD,Grade II GI GVHD,provide clinical benefit
same,Cumulative treatment failure rate (Kaplan-Meier estimate),"[4]; Study day 10, P = 0.1538 vs placebo",0.14
same,Cumulative events (treatment failures),[4]; Study day 10,8
same,Cumulative treatment failure rate (Kaplan-Meier estimate),"[4]; Study day 30, P = 0.3625 vs placebo",0.25
same,Cumulative events (treatment failures),[4]; Study day 30,15
same,Cumulative treatment failure rate (Kaplan-Meier estimate),"[4]; Study day 50, P = 0.0515 vs placebo",0.31
same,Cumulative events (treatment failures),[4]; Study day 50,18
same,Cumulative treatment failure rate (Kaplan-Meier estimate),"[4]; Study day 60, P = 0.0558 vs placebo",0.33
same,Cumulative events (treatment failures),[4]; Study day 60,19
same,Cumulative treatment failure rate (Kaplan-Meier estimate),"[4]; Study day 80, P = 0.0048 vs placebo",0.39
same,Cumulative events (treatment failures),[4]; Study day 80,22
same,time to treatment failure through Day 50 (primary endpoint) versus placebo,"[4]; log-rank, p-value 0.1177",did not achieve statistical significance
same,Treatment Failure Rate at Study Day 80,"[4]; orBec 8 mg/day for 50 days + prednisone, n = 62, p 0.0048 vs placebo",39%
same,Treatment Failure Rate at Study Day 50,"[4]; orBec 8 mg/day for 50 days + prednisone, n = 62, p 0.0515 vs placebo",31%
same,time to treatment failure through Day 80 (secondary endpoint) versus placebo,[4]; p-value 0.0226,did achieve statistical significance
